Values of other authors as cited in patent publication US20240368000A1, “CARBON REMOVAL FROM SEAWATER AND OTHER LIQUIDS USING PHOTOACTIVE COMPOUNDS” (University of Washington, priority 2021, published 2024).

Conditions: ground (dark) state of the photoacid; value from Wimberger et al., Chem. Commun. 2022, 58(37), 5610-5613

pKa-Dark: 7.33
Compound: COc1ccc2c(c1)C(C)(C)C(/C=C\c1ccccc1O)=[N+]2CCCC[S@SP3](=O)(=O)[O-] [merocyanine photoacid]
